Measurements reported in paper PMC5468247, “Development of a selective agonist for relaxin family peptide receptor 3” (Scientific Reports, 2017).

What was measured:
[1] = target: T1, human RXFP4 (Homo sapiens, UniProt Q8TDU9); experiment: Receptor activation assay, CRE-controlled NanoLuc reporter; assay type: cell-based; details: relative to R3/I5
T1 construct: expressed in transfected cells; host or cells: HEK293T
Excerpt: (§1) HEK293T cells transiently cotransfected with a CRE-controlled NanoLuc reporter vector and the expression construct of human RXFP3 or human RXFP4 were used for activation assays. The measured bioluminescence data are expressed as means ± SE (n = 3) and fitted to sigmoidal or linear curves using SigmaPlot 10.0.
(§2) Briefly, HEK293T cells were transiently cotransfected with the NanoLuc reporter vector pNL1.2/CRE and the expression construct of human RXFP3 or human RXFP4. On the next day, transfected cells were trypsinised, seeded into 96-well plates, and continuously cultured for 24–36 h to ~90% confluence. To initiate activation assays, medium was removed and activation solution (serum-free DMEM medium plus 1% bovine serum albumin) containing 1.0 μM of forskolin and various concentrations of peptide was added (100 μl/well). After continuous culturing at 37 °C for 4 h, activation solution was removed and cells were lysed with lysis solution (100 μl/well, Promega). Cell lysates were then transferred to a white opaque 96-well plate (50 μl/well), mixed with freshly diluted substrate (50 μl/well), and bioluminescence was immediately measured on a SpectraMax M5 plate reader (Molecular Devices) in luminescence mode. The measured data were expressed as means ± SE (n = 3) and fitted to sigmoidal or linear curves using SigmaPlot 10.0 software.

[2] = target: T2, human RXFP3 (Homo sapiens, UniProt Q9NSD7); experiment: as above; assay type: cell-based; details: for fold lower activation potency towards RXFP3 compared with R3/I5: relative to R3/I5; for fold higher activation potency towards RXFP3 than towards RXFP4: selectivity RXFP3 over RXFP4, from activation assays
T2 construct: expressed in transfected cells; host or cells: HEK293T
T2 sequence (Q9NSD7 1-469): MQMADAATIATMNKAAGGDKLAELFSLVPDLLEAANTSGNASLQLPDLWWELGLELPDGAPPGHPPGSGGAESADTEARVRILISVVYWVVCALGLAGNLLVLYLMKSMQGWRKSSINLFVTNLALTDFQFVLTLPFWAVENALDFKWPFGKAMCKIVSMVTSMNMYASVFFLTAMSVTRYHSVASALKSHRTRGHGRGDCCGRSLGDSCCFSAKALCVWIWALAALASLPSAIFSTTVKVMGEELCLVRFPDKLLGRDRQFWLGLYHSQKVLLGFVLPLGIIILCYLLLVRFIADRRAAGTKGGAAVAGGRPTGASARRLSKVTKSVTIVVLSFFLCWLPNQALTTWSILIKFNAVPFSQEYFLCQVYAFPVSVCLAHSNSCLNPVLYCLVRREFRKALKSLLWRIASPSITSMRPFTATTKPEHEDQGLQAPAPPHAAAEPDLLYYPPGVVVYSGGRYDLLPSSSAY
Excerpt: as §1, §2

[3] = target: T1, human RXFP4; experiment: Receptor binding assay, NanoLuc-conjugated R3/I5 tracer competition; details: compared with R3/I5
Description: (§3) Specific binding data are expressed as means ± SE (n = 3) and fitted to sigmoidal curves using SigmaPlot 10.0 software.
(§4) Briefly, HEK293T cells were transiently transfected with an expression construct of human RXFP3 or human RXFP4. On the next day, transfected cells were trypsinised, seeded into 96-well plates, and continuously cultured for 24–36 h to ~100% confluence. […] After incubation at 21 °C for 2 h, binding solution was removed and cells were washed twice with ice-cold phosphate-buffered saline (200 μl/well for each wash). Thereafter, cells were lysed by lysis solution (100 μl/well, Promega, Madison, WI, USA) and cell lysates were transferred to a white opaque 96-well plate (50 μl/well). After mixing with freshly diluted substrate (50 μl/well), bioluminescence was immediately measured on a SpectraMax M5 plate reader (Molecular Devices, Sunnyvale, CA, USA) in luminescence mode. […] The calculated specific binding data were expressed as means ± standard error (SE; n = 3) and fitted to sigmoidal curves using SigmaPlot 10.0 software.

[4] = target: T2, human RXFP3; experiment: as above; details: for binding potency towards RXFP3, in words: compared with R3/I5
Description: as §3, §4

[5] = CRE-NanoLuc reporter, human RXFP3

T1 sequence (Q8TDU9 whole entry): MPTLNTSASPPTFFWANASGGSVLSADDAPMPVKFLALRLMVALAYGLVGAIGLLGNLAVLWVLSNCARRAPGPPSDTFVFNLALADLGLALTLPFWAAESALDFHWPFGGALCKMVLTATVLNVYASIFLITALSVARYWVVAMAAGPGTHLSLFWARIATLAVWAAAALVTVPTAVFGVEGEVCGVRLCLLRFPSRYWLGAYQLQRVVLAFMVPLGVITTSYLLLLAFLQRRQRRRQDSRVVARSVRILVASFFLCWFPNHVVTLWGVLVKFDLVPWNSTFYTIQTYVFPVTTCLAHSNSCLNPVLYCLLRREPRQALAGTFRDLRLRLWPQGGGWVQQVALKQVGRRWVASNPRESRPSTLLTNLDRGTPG

Structure (SMILES) | fold lower activation potency towards RXFP4 compared with R3/I5 [1] | fold lower activation potency towards RXFP3 compared with R3/I5 [2, 5] | binding potency towards RXFP4, in words [3] | binding potency towards RXFP3, in words [4] | activation potency towards RXFP3, in words ([2]; CRE-NanoLuc reporter, human RXFP3, compared with R3/I5) | fold higher activation potency towards RXFP3 than towards RXFP4 [2] | fold lower binding potency for RXFP3 compared with R3/I5 ([4]; relative to R3/I5)
CC[C@H](C)[C@@H]1NC(=O)[C@H](Cc2ccccc2)NC(=O)[C@H](CCC(=O)O)NC(=O)[C@H](CCCNC(=N)N)NC(=O)CNC(=O)[C@@H](NC(=O)[C@H](CC(C)C)NC(=O)[C@H](CCCNC(=N)N)NC(=O)[C@@H](NC(=O)CNC(=O)[C@H](Cc2ccc(O)cc2)NC(=O)[C@@H]2CCCN2C(=O)[C@H](C)NC(=O)[C@H](C)NC(=O)[C@H](CCCNC(=N)N)NC(=O)[C@@H]2CCC(=O)N2)C(C)C)CSSC[C@@H]2NC(=O)[C@@H](NC(=O)[C@H](CC(C)C)NC(=O)[C@@H](NC(=O)[C@H](CCC(N)=O)NC(=O)[C@H](CC(C)C)NC(=O)[C@H](CC(=O)O)NC(=O)[C@H](CCC(N)=O)NC(=O)[C@H](CCCNC(=N)N)NC(=O)[C@H](CO)NC(=O)[C@H](CCCNC(=N)N)NC(=O)[C@H](CCCNC(=N)N)NC(=O)[C@H](CO)NC(=O)[C@@H](N)CCCNC(=N)N)[C@@H](C)O)CSSC[C@H](NC(=O)CNC(=O)[C@H](CC(=O)O)NC(=O)[C@H]([C@@H](C)O)NC2=O)C(=O)N[C@@H](CO)C(=O)N[C@@H](CCSC)C(=O)N[C@@H]([C@@H](C)O)C(=O)N[C@@H](CC(=O)O)C(=O)N[C@@H](CC(C)C)C(=O)N[C@@H](CO)C(=O)N[C@@H](C)C(=O)N[C@@H](CC(C)C)C(=O)N[C@H](C(=O)O)CSSC[C@@H](C(=O)NCC(=O)NCC(=O)NCC(=O)N[C@@H](CO)C(=O)N[C@@H](CCCNC(=N)N)C(=O)N[C@@H](Cc2c[nH]c3ccccc23)C(=O)O)NC(=O)[C@H]([C@@H](C)O)NC(=O)[C@H](Cc2ccccc2)NC(=O)[C@H]([C@@H](C)CC)NC(=O)[C@H](C(C)C)NC(=O)[C@H](C)NC(=O)[C@H](CCCNC(=N)N)NC1=O [[+G(B23-24)]R3/I5] | ~ 100 fold | ~ 100 fold | comparable with R3/I5 | comparable with R3/I5 |  |  | 
CC[C@H](C)[C@@H]1NC(=O)[C@H](Cc2ccccc2)NC(=O)[C@H](CCC(=O)O)NC(=O)[C@H](CCCNC(=N)N)NC(=O)CNC(=O)[C@@H](NC(=O)[C@H](CC(C)C)NC(=O)[C@H](CCCNC(=N)N)NC(=O)[C@@H](NC(=O)CNC(=O)[C@H](Cc2ccc(O)cc2)NC(=O)[C@@H]2CCCN2C(=O)[C@H](C)NC(=O)[C@H](C)NC(=O)[C@H](CCCNC(=N)N)NC(=O)[C@@H]2CCC(=O)N2)C(C)C)CSSC[C@@H]2NC(=O)[C@@H](NC(=O)[C@H](CC(C)C)NC(=O)[C@@H](NC(=O)[C@H](CCC(N)=O)NC(=O)[C@H](CC(C)C)NC(=O)[C@H](CC(=O)O)NC(=O)[C@H](CCC(N)=O)NC(=O)[C@H](CCCNC(=N)N)NC(=O)[C@H](CO)NC(=O)[C@H](CCCNC(=N)N)NC(=O)[C@H](CCCNC(=N)N)NC(=O)[C@H](CO)NC(=O)[C@@H](N)CCCNC(=N)N)[C@@H](C)O)CSSC[C@H](NC(=O)CNC(=O)[C@H](CC(=O)O)NC(=O)[C@H]([C@@H](C)O)NC2=O)C(=O)N[C@@H](CO)C(=O)N[C@@H](CCSC)C(=O)N[C@@H]([C@@H](C)O)C(=O)N[C@@H](CC(=O)O)C(=O)N[C@@H](CC(C)C)C(=O)N[C@@H](CO)C(=O)N[C@@H](C)C(=O)N[C@@H](CC(C)C)C(=O)N[C@H](C(=O)O)CSSC[C@@H](C(=O)N[C@@H](C)C(=O)NCC(=O)N[C@@H](CO)C(=O)N[C@@H](CCCNC(=N)N)C(=O)N[C@@H](Cc2c[nH]c3ccccc23)C(=O)O)NC(=O)[C@H]([C@@H](C)O)NC(=O)[C@H](Cc2ccccc2)NC(=O)[C@H]([C@@H](C)CC)NC(=O)[C@H](C(C)C)NC(=O)[C@H](C)NC(=O)[C@H](CCCNC(=N)N)NC1=O [[G(B23)A]R3/I5] | ~ 100 fold |  | retained high binding potency | retained considerable binding potency | lost all activation potency |  | 
CC[C@H](C)[C@@H]1NC(=O)[C@H](Cc2ccccc2)NC(=O)[C@H](CCC(=O)O)NC(=O)[C@H](CCCNC(=N)N)NC(=O)CNC(=O)[C@@H](NC(=O)[C@H](CC(C)C)NC(=O)[C@H](CCCNC(=N)N)NC(=O)[C@@H](NC(=O)CNC(=O)[C@H](Cc2ccc(O)cc2)NC(=O)[C@@H]2CCCN2C(=O)[C@H](C)NC(=O)[C@H](C)NC(=O)[C@H](CCCNC(=N)N)NC(=O)[C@@H]2CCC(=O)N2)C(C)C)CSSC[C@@H]2NC(=O)[C@@H](NC(=O)[C@H](CC(C)C)NC(=O)[C@@H](NC(=O)[C@H](CCC(N)=O)NC(=O)[C@H](CC(C)C)NC(=O)[C@H](CC(=O)O)NC(=O)[C@H](CCC(N)=O)NC(=O)[C@H](CCCNC(=N)N)NC(=O)[C@H](CO)NC(=O)[C@H](CCCNC(=N)N)NC(=O)[C@H](CCCNC(=N)N)NC(=O)[C@H](CO)NC(=O)[C@@H](N)CCCNC(=N)N)[C@@H](C)O)CSSC[C@H](NC(=O)CNC(=O)[C@H](CC(=O)O)NC(=O)[C@H]([C@@H](C)O)NC2=O)C(=O)N[C@@H](CO)C(=O)N[C@@H](CCSC)C(=O)N[C@@H]([C@@H](C)O)C(=O)N[C@@H](CC(=O)O)C(=O)N[C@@H](CC(C)C)C(=O)N[C@@H](CO)C(=O)N[C@@H](C)C(=O)N[C@@H](CC(C)C)C(=O)N[C@H](C(=O)O)CSSC[C@@H](C(=O)NCC(=O)N[C@H](C(=O)N[C@@H](CO)C(=O)N[C@@H](CCCNC(=N)N)C(=O)N[C@@H](Cc2c[nH]c3ccccc23)C(=O)O)[C@@H](C)O)NC(=O)[C@H]([C@@H](C)O)NC(=O)[C@H](Cc2ccccc2)NC(=O)[C@H]([C@@H](C)CC)NC(=O)[C@H](C(C)C)NC(=O)[C@H](C)NC(=O)[C@H](CCCNC(=N)N)NC1=O [[G(B24)T]R3/I5] |  | ~ 20 fold |  |  |  | ~ 2 fold | 
CC[C@H](C)[C@@H]1NC(=O)[C@H](Cc2ccccc2)NC(=O)[C@H](CCC(=O)O)NC(=O)[C@H](CCCNC(=N)N)NC(=O)CNC(=O)[C@@H](NC(=O)[C@H](CC(C)C)NC(=O)[C@H](CCCNC(=N)N)NC(=O)[C@@H](NC(=O)CNC(=O)[C@H](Cc2ccc(O)cc2)NC(=O)[C@@H]2CCCN2C(=O)[C@H](C)NC(=O)[C@H](C)NC(=O)[C@H](CCCNC(=N)N)NC(=O)[C@@H]2CCC(=O)N2)C(C)C)CSSC[C@@H]2NC(=O)[C@@H](NC(=O)[C@H](CC(C)C)NC(=O)[C@@H](NC(=O)[C@H](CCC(N)=O)NC(=O)[C@H](CC(C)C)NC(=O)[C@H](CC(=O)O)NC(=O)[C@H](CCC(N)=O)NC(=O)[C@H](CCCNC(=N)N)NC(=O)[C@H](CO)NC(=O)[C@H](CCCNC(=N)N)NC(=O)[C@H](CCCNC(=N)N)NC(=O)[C@H](CO)NC(=O)[C@@H](N)CCCNC(=N)N)[C@@H](C)O)CSSC[C@H](NC(=O)CNC(=O)[C@H](CC(=O)O)NC(=O)[C@H]([C@@H](C)O)NC2=O)C(=O)N[C@@H](CO)C(=O)N[C@@H](CCSC)C(=O)N[C@@H]([C@@H](C)O)C(=O)N[C@@H](CC(=O)O)C(=O)N[C@@H](CC(C)C)C(=O)N[C@@H](CO)C(=O)N[C@@H](C)C(=O)N[C@@H](CC(C)C)C(=O)N[C@H](C(=O)O)CSSC[C@@H](C(=O)NCC(=O)N[C@H](C(=O)N[C@@H](CO)C(=O)N[C@@H](CCCNC(=N)N)C(=O)N[C@@H](Cc2c[nH]c3ccccc23)C(=O)O)C(C)C)NC(=O)[C@H]([C@@H](C)O)NC(=O)[C@H](Cc2ccccc2)NC(=O)[C@H]([C@@H](C)CC)NC(=O)[C@H](C(C)C)NC(=O)[C@H](C)NC(=O)[C@H](CCCNC(=N)N)NC1=O [[G(B24)V]R3/I5] |  | ~ 10 fold |  |  |  | ~ 10 fold | ~ 5 fold
